Test results: patent publication US7888339B2, “2-methylene-20(21)-dehydro-19-nor-vitamin D analogs” (Wisconsin Alumni Research Foundation, priority 2008, dated 2011)

Columns and labels:
[1] = tested on: HL-60 cells; test: HL-60 cell differentiation (nitro blue tetrazolium reduction); type: cell-based, human; conditions: for EC50: HL-60 cells into monocytes, FIG. 2
Procedure: The study drugs were dissolved in ethanol and the concentrations determined using UV spectrophotometry. Serial dilutions were prepared so that a range of drug concentrations could be tested without changing the final concentration of ethanol (≦0.2%) present in the cell cultures.
Human promyelocytic leukemia (HL60) cells were grown in RPMI-1640 medium containing 10% fetal bovine serum. The cells were incubated at 37° C. in the presence of 5% CO2.
HL60 cells were plated at 1.2×10^5 cells/ml. Eighteen hours after plating, cells in duplicate were treated with drug. Four days later, the cells were harvested and a nitro blue tetrazolium reduction assay was performed (Collins et al., 1979; J. Exp. Med. 149:969-974). The percentage of differentiated cells was determined by counting a total of 200 cells and recording the number that contained intracellular black-blue formazan deposits. Verification of differentiation to monocytic cells was determined by measuring phagocytic activity (data not shown).

[2] = tested on: 24-hydroxylase (24Ohase) gene promoter in ROS 17/2.8 (bone) cells; test: In vitro transcription assay (24-hydroxylase gene promoter, luciferase reporter); type: cell-based; conditions: ROS 17/2.8 cells, 24-hydroxylase promoter-luciferase; FIG. 3; read-out: EC50, transcriptional activity in bone cells
Procedure: Transcription activity was measured in ROS 17/2.8 (bone) cells that were stably transfected with a 24-hydroxylase (24Ohase) gene promoter upstream of a luciferase reporter gene (Arbour et al., 1998). Cells were given a range of doses. Sixteen hours after dosing the cells were harvested and luciferase activities were measured using a luminometer.
RLU=relative luciferase units.

[3] = tested on: bone calcium mobilization; test: Bone calcium mobilization (serum calcium) in vitamin D-deficient rats; type: in vivo, rat; conditions: FIG. 4; for mobilization of bone calcium (serum calcium): ip, 4 consecutive days, rats on 0.02% Ca diet
Procedure: (§1) Male, weanling Sprague-Dawley rats were placed on Diet 11 (0.47% Ca) diet+AEK oil for one week followed by Diet 11 (0.02% Ca)+AEK oil for 3 weeks. The rats were then switched to a diet containing 0.47% Ca for one week followed by two weeks on a diet containing 0.02% Ca. Dose administration began during the last week on 0.02% calcium diet. Four consecutive ip doses were given approximately 24 hours apart. Twenty-four hours after the last dose, blood was collected from the severed neck and the concentration of serum calcium determined as a measure of bone calcium mobilization. The first 10 cm of the intestine was also collected for intestinal calcium transport analysis using the everted gut sac method.

[4] = tested on: intestinal calcium transport; test: Intestinal calcium transport (everted gut sac method) in vitamin D-deficient rats; type: in vivo, rat; conditions: FIG. 5; for intestinal calcium transport: 260 pmol/day, ip, 4 consecutive days, everted gut sac
Procedure: as §1

[5] = target: T1, full-length recombinant rat vitamin D receptor (Rattus norvegicus, UniProt P13053); test: Vitamin D receptor competitive binding with [3H]-1,25(OH)2D3; conditions: FIG. 1
T1 construct: Full-length recombinant rat receptor was expressed in E. coli; histidine tag (C); made in house; host or cells: E. coli BL21 (DE3) Codon Plus RIL
T1 sequence (P13053 1-423): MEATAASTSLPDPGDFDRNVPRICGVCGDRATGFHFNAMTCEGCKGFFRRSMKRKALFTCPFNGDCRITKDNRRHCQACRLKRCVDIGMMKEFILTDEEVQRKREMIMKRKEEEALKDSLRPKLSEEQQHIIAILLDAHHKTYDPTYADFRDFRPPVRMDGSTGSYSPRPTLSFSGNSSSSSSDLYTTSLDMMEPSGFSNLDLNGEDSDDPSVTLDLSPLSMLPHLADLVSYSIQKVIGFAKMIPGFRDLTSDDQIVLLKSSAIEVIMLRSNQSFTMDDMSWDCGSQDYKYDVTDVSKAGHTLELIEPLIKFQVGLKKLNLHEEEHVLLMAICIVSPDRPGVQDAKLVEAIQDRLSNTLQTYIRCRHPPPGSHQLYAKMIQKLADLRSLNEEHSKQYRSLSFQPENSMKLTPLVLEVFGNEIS
Procedure: Full-length recombinant rat receptor was expressed in E. coli BL21 (DE3) Codon Plus RIL cells and purified to homogeneity using two different column chromatography systems. The first system was a nickel affinity resin that utilizes the C-terminal histidine tag on this protein. The protein that was eluted from this resin was further purified using ion exchange chromatography (S-Sepharose Fast Flow). Aliquots of the purified protein were quick frozen in liquid nitrogen and stored at −80° C. until use. For use in binding assays, the protein was diluted in TEDK50 (50 mM Tris, 1.5 mM EDTA, pH7.4, 5 mM DTT, 150 mM KCl) with 0.1% Chaps detergent. The receptor protein and ligand concentration were optimized such that no more than 20% of the added radiolabeled ligand was bound to the receptor.
Radiolabeled and unlabeled ligands were added to 100 mcl of the diluted protein at a final ethanol concentration of ≦10%, mixed and incubated overnight on ice to reach binding equilibrium. The following day, 100 mcl of hydroxylapatite slurry (50%) was added to each tube and mixed at 10-minute intervals for 30 minutes. The hydroxylapaptite was collected by centrifugation and then washed three times with Tris-EDTA buffer (50 mM Tris, 1.5 mM EDTA, pH 7.4) containing 0.5% Titron X-100. […] Total binding was determined from the tubes containing only radiolabeled ligand.

SMILES | EC50 [1] [nM] | EC50 [2] [nM] | mobilization of bone calcium (serum calcium) ([3]; 260 pmol/day) | intestinal calcium transport [4] | Ki ([5]; full-length recombinant rat VDR, read-out: Ki, competition with [3H]-1,25(OH)2D3 for binding to the vitamin D receptor) [nM] | VDR binding affinity compared to 1,25(OH)2D3 ([5]; in words) | EC50 ([1]; Homo sapiens) [nM] | potency on HL-60 cell differentiation relative to 1,25(OH)2D3 ([1]; compared to 1,25(OH)2D3) [times] | mobilization of bone calcium (serum calcium) ([3]; 2340 pmol/day) | bone calcium mobilization activity compared to 1,25(OH)2D3 ([3]; in words) | intestinal calcium transport activity compared to 1,25(OH)2D3 ([4]; in words)
C=C1/C(=C\C=C2/CCC[C@]3(C)[C@@H]([C@H](C)CCCC(C)(C)O)CC[C@@H]23)C[C@@H](O)C[C@@H]1O [1,25(OH)2D3, 1α,25-dihydroxyvitamin D3, reference compound] | 2 | 0.3 | increased serum calcium levels | significant increase | – | – | – | – | – | – | –
C=C1[C@H](O)CC(=C/C=C2\CCC[C@]3(C)[C@@H](C(=C)CCCC(C)(C)O)CC[C@@H]23)C[C@H]1O [Vit III 20-21, 2-methylene-20(21)-dehydro-19-nor-1α,25-dihydroxyvitamin D3] | – | 2 | did not result in mobilization of bone calcium | promotes intestinal calcium transport | 0.1 | same affinity | 0.7 | 3 to 4 | substantial effect | less bone calcium mobilization activity | about the same activity
